Measurements as given in patent US20230312652A1, “NOVEL PEPTIDES AND USES THEREOF” (Aarhus Universitet, priority 2020, published 2023).
Where a SMILES comes first, the peptide text is derived from it.

Columns and labels:
[1] = test system: AMPK (T172) and Raptor (S792); experiment: Phosphorylation of AMPK (T172) and Raptor (S792) in cortical neurons, western blotting; type: cell-based, mouse; conditions: 1 uM, 20 minutes
Experimental: To assess the ability of peptide P1 to activate AMPK and subsequently inactivate the mTOR complex, mouse cortical neurons were isolated from p0 wild-type mice and seeded in a density of 250,000 per well in a 12-well tray. After 7 days in vitro the neurons were stimulated with P1 in neurobasal A media and incubated at 37° C. and 5% CO2 for 20 minutes. Hereafter, the neurons were lysed in lysis buffer containing DTT and cOmplete cocktail protease inhibitor. The phosphorylation of AMPK (T172) and Raptor (S792) was validated by western blotting normalized to beta-actin.

[2] = test system: AMPK (T172) and CREB (S133); experiment: P1 activation of AMPK and CREB with or without CaMKK2-inhibitor STO-609 in cortical neurons; type: cell-based, mouse
Experimental: Mouse cortical neurons were isolated from p0 wild-type mice and seeded in a density of 250,000 per well in a 12-well tray. After 7 days in vitro the neurons were either pre-treated with STO-609 (5 uM) for 1 hour or with DMSO (control). After 1 hour, the neurons were stimulated with P1 or a scrambled peptide (Scr), with or without STO-609, in neurobasal A media and incubated at 37° C. and 5% CO2 for 20 minutes. Hereafter, the neurons were lysed in lysis buffer containing DTT and cOmplete cocktail protease inhibitor. Phosphorylation of AMPK (T172) and CREB (S133) was validated by western blotting and normalized to beta-actin.

CREB [3] = experiment: CREB activation in GRN+/- cortical neurons, western blotting; type: cell-based, mouse; conditions: 1 uM, 20 minutes
Experimental: In this study, it was examined whether peptide P1 could increase phosphorylation of CREB (ser133) similar to wild-type neurons. To study the activation of CREB, cortical neurons were isolated from GRN+/−p0 […] mice and seeded in a density of 500,000 per well. After 7 days in vitro the neurons were stimulated with peptide P1 at 1 uM in neurobasal A media at 37° C. and 5% CO2 and incubated for 20 minutes. Following, the neurons were lysed in lysis buffer containing DTT and cOmplete cocktail protease inhibitor and subsequently sonicated to disrupt the nuclear membrane. The phosphorylation of CREB on serine 133 was subsequently validated by western blotting. The levels of phosphorylated CREB were normalized to the corresponding beta-actin levels. Student's t-test was used for statistical analysis.

[4] = test system: R6/2 mice (mouse model of Huntington's); experiment: Brain weight and activity studies in R6/2 mice (open field, clasping, rotarod); type: in vivo; conditions: 13 mg/kg SC daily
Experimental: The R6/2 mice were injected with a daily dose of 13 mg/kg of P1 subcutaneously in 4.38 mM L-His, 140 mM NaCl, 0.2% Tween-20 and 1500 IU hyaluronidase (pH 6.15) between 8 weeks to 12 weeks of age. At 12 weeks of age, mice were sacrificed and their brains removed and both hippocampus—cortex and striatal tissue was isolated and lysed in RIPA lysis buffer containing containing cOmplete and phosSTOP.
Prior to treatment (8 weeks of age), the R6/2 mice were weighed and assessed for clasping and rotarod behavior before randomization to 4 cages of n=6 each (two cages pr treatment group). The experimenter remained blinded throughout the studies and data analysis. Motor coordination was measured by hind-limb clasping and rotarod between week 7-12.
Clasping: Mice were once weekly assessed for clasping behavior. Mice were placed on the top grid of a cage and then held by the tail and lifted over the top of the homecage for 10 successive trials of 3 seconds with 3 second rest intervals
Rotarod: Accelerating test—cylinder accelerates from 4 to 40 RPM in 5 minutes with linear speed progression. During the first week of training, mice undergo 3 trials per day for 3 consecutive days. During training sessions, mice receive “second changes” when falling from the rotarod. The following weeks, mice are tested on only one day for 3 consecutive trials. The mean latency to fall is used for data analysis.
At 11 weeks of age, mice were subjected to an open field consisting of a 40×40 cm box with transparent Plexiglas walls of 50 cm height. Their behaviour was recorded using an automated tracking software and camera (Anymaze, Havard apparatus). Distance travelled and number of rears were recorded over a 20 min. period.
Brain weight: At 12 weeks of age, mice were sacrificed and the entire brain was carefully extracted and weighed using a fine-scale weigh.

[5] = test system: pCREB, TFEB, LAMP1, p62/SQSTM1, PGRN, PGC1a; experiment: Pathway engagement in striatum of wild-type mice after SC injection, western blotting; type: in vivo, mouse; conditions: 13 mg/kg SC
Experimental: Wild-type mice were injected with 13 mg/kg of P1 (SEQ ID NO: 1) subcutaneously in 4.38 mM L-His, 140 mM NaCl, 0.2% Tween-20 and 1500 IU hyaluronidase (pH 6.15). The mice were sacrificed at timepoints between 2-8 hours after injection. Striatal tissue was isolated and the tissue was lysed using a TissueLyser in RIPA lysis buffer containing cOmplete and phosSTOP. Levels of pCREB, TFEB, downstream lysosomal gene products LAMP1, p62/SQSTM1, PGRN and mitochondrial master regulator PGC1a were validated by western blotting. All proteins were normalized to beta-actin levels.

CREB [6] = experiment: CREB activation in striatum and hippocampus of wild-type mice after IV injection; type: in vivo, mouse; conditions: 0.26 mg/kg IV, 1 hour after injection
Experimental: To assess this, 8 weeks old wild-type mice were injected intravenously with either 0.26 mg/kg of peptide P1 or LP1 dissolved in saline. 1 hour after the injection, the mice were sacrificed by cervical dislocation and striatal tissue was isolated by dissection and immediately lysed using a TissueLyser in lysis buffer containing cOmplete and DTT. The samples were subsequently homogenized by sonication. The phosphorylation of CREB on serine 133 was subsequently validated by western blotting. The levels of phosphorylated CREB were normalized to the corresponding beta-actin levels. Student's t-test was used for statistical analysis.

[7] = 11 weeks of age, 20 min, vs vehicle

Compound: CSCC[C@@H]1NC(=O)[C@H](C(C)C)NC(=O)[C@H](CC(=O)O)NC(=O)[C@H](CCC(=O)O)NC(=O)[C@H](CCC(=O)O)NC(=O)[C@H](Cc2c[nH]cn2)NC(=O)[C@H](CCC(=O)O)NC(=O)[C@H](C(C)C)NC(=O)[C@@H]2CCCN2C(=O)[C@H](CCC(=O)O)NC(=O)[C@H]([C@@H](C)O)NC1=O [Peptide P1, [MTEPVEHEEDV]] (cyclo(MTEPVEHEEDV))
- AMPK phosphorylation on T172 [1]: activates AMPK
- Raptor phosphorylation on S792 [1]: inactivates Raptor
- phosphorylation of AMPK (T172) ([2]; 1 uM P1, without STO-609): significantly increased phosphorylation
- phosphorylation of CREB (S133) ([2]; 1 uM P1, without STO-609): significantly increased phosphorylation
- P1-induced activation of AMPK ([2]; pre-treated with 5 uM STO-609 for 1 hour): loss of P1-induced activation of AMPK
- CREB activation by P1 ([2]; pre-treated with 5 uM STO-609 for 1 hour, compared to P1-treated cells only): lowered but not totally abolished
- phosphorylation of CREB (S133) (CREB [3]): able to activate CREB
- average increase of brain weight ([4]; 8 to 12 weeks of age, at 12 weeks): 14 mg
- motor function, clasping ([4]; week 8-12): tendency to improve motor functions
- motor function, rotarod ([4]; week 8-12): tendency to improve motor functions
- distance travelled, open field [4, 7]: significantly higher
- rearing frequency, open field [4, 7]: significantly higher
- pCREB in striatum ([5]; after 2 hours): significantly activates CREB
- pCREB in striatum ([5]; at 4 hours): no significant effect
- PGC1a in striatum ([5]; at 6 hours): significantly increased
- PGRN in striatum ([5]; at 6 hours): significantly increased
- p62/SQSTM1 levels in striatum (autophagic flux) ([5]; at 8 hours following injection): significantly lowered
- LAMP1 in striatum ([5]; between 2-4 hours): significantly increased
- TFEB in striatum ([5]; between 2-4 hours): significantly increased
- pCREB (S133) in hippocampus (CREB [6]): performed markedly better than LP1
- pCREB (S133) in striatum (CREB [6]): performed markedly better than LP1
